Reference: ChEMBL document CHEMBL3272096, “Semisynthetic cephalosporins. Synthesis and structure-activity relationships of 7-sulfonylacetamido-3-cephem-4-carboxylic acids” (1976)
In brackets after ≈: the same amount, converted by molar mass. Activity calls are given as the source filed them. The calls are words filed in the database; no cut-off is given here.

What was measured:
Escherichia coli [1] = assay: Antibacterial activity against Escherichia coli 12140 by two-fold agar dilution method; assay type: functional
Salmonella paratyphi = assay: Antibacterial activity against Salmonella paratyphi ATCC 12176 by two-fold agar dilution method; assay type: functional, Salmonella enterica subsp. enterica serovar Paratyphi A; details: Salmonella enterica
Shigella flexneri = assay: Antibacterial activity against Shigella paradysenteriae HH 117 by two-fold agar dilution method; assay type: functional
Staphylococcus aureus [2] = assay: Antibacterial activity against penicillin G-resistant Staphylococcus aureus HH 127 by two-fold agar dilution method; assay type: functional
Pseudomonas aeruginosa = assay: Antibacterial activity against Pseudomonas aeruginosa by two-fold agar dilution method; assay type: functional, organism-based
Klebsiella pneumoniae = assay: Antibacterial activity against Klebsiella pneumoniae 4200 by two-fold agar dilution method; assay type: functional
Klebsiella aerogenes = assay: Antibacterial activity against Enterobacter aerogenes ATCC 13048 by two-fold agar dilution method; assay type: functional
Enterococcus faecalis = assay: Antibacterial activity against Streptococcus faecalis by two-fold agar dilution method; assay type: functional
Staphylococcus aureus [3] = assay: Antibacterial activity against Staphylococcus aureus 23390 by two-fold agar dilution method; assay type: functional, organism-based
Escherichia coli [4] = assay: Antibacterial activity against Escherichia coli 12140 infected in sc dosed mouse assessed as host protection administered at 1 and 5 hrs post-infection; assay type: functional; details: Escherichia coli, 12140, sc; read-out: PD50

Compound	MIC (Escherichia coli [1]) [µg/mL]	MIC (Salmonella paratyphi) [µg/mL]	MIC (Shigella flexneri) [µg/mL]	MIC (Staphylococcus aureus [2]) [µg/mL]	Activity (Pseudomonas aeruginosa)	MIC (Klebsiella pneumoniae) [µg/mL]	MIC (Klebsiella aerogenes) [µg/mL]	MIC (Enterococcus faecalis) [µg/mL]	Activity (Staphylococcus aureus [3])	ED50 (Escherichia coli [4]) [mg/kg]
CCCCS(=O)(=O)CC(=O)N[C@@H]1C(=O)N2C(C(=O)O)=C(COC(C)=O)CS[C@H]12	13 (≈ 29.9 µM)	3.1 (≈ 7.13 µM)	6.2 (≈ 14.3 µM)	0.2 (≈ 0.46 µM)	inactive	13 (≈ 29.9 µM)	50 (≈ 115 µM)	> 13	Active	180
CCCCS(=O)(=O)CC(=O)N[C@@H]1C(=O)N2C(C(=O)[O-])=C(CSc3nnc(C)s3)CS[C@H]12.[Na+]	6.2	1.6	6.2	0.1	inactive	6.2	25	> 13	Active	> 50
CC(=O)OCC1=C(C(=O)O)N2C(=O)[C@@H](NC(=O)CS(=O)(=O)C(F)(F)F)[C@H]2SC1	6.2 (≈ 13.9 µM)	6.2 (≈ 13.9 µM)	13 (≈ 29.1 µM)	6.2 (≈ 13.9 µM)	inactive	6.2 (≈ 13.9 µM)	25 (≈ 56 µM)	> 13	Active	> 50
CCS(=O)(=O)CC(=O)N[C@@H]1C(=O)N2C(C(=O)[O-])=C(COC(C)=O)CS[C@H]12.[Na+]	25	3.1	25	0.8	inactive	6.2	> 200	> 13	Active	70
CCS(=O)(=O)CC(=O)N[C@@H]1C(=O)N2C(C(=O)[O-])=C(CSc3nnnn3C)CS[C@H]12.[Na+]	1.6	0.8	1.6	0.8	inactive	1.6	100	> 13	Active	7
Cc1nnc(SCC2=C(C(=O)O)N3C(=O)[C@@H](NC(=O)Cn4cnnn4)[C@H]3SC2)s1 [CEFAZOLIN]	0.8 (≈ 1.76 µM)	0.8 (≈ 1.76 µM)	0.4 (≈ 0.88 µM)	0.4 (≈ 0.88 µM)		0.8 (≈ 1.76 µM)	1.6 (≈ 3.52 µM)		Active	6
CCCCS(=O)(=O)CC(=O)N[C@@H]1C(=O)N2C(C(=O)[O-])=C(CSc3nnnn3C)CS[C@H]12.[Na+]	3.1	1.6	3.1	0.4	inactive	3.1	13	> 13	Active	21
Cc1nnc(SCC2=C(C(=O)[O-])N3C(=O)[C@@H](NC(=O)CS(C)(=O)=O)[C@H]3SC2)s1.[Na+]	13	3.1	13	1.6	inactive	3.1	> 200	> 13	Active	
Cn1nnnc1SCC1=C(C(=O)O)N2C(=O)[C@@H](NC(=O)CSC(F)(F)F)[C@H]2SC1 [CEFAZAFLUR]	0.4 (≈ 0.85 µM)	0.4 (≈ 0.85 µM)	0.2 (≈ 0.425 µM)	0.4 (≈ 0.85 µM)		0.8 (≈ 1.7 µM)	1.6 (≈ 3.4 µM)		Active	2
CC(=O)OCC1=C(C(=O)O)N2C(=O)[C@@H](NC(=O)Cc3cccs3)[C@H]2SC1 [CEPHALOTHIN]	3.1 (≈ 7.82 µM)	1.6 (≈ 4.04 µM)	6.2 (≈ 15.6 µM)	0.2 (≈ 0.504 µM)		3.1 (≈ 7.82 µM)	50 (≈ 126 µM)		Active	50
CCCS(=O)(=O)CC(=O)N[C@@H]1C(=O)N2C(C(=O)[O-])=C(CSc3nnc(C)s3)CS[C@H]12.[Na+]	6.2	1.6	6.2	0.4	inactive	3.1	50	> 13	Active	25
CCCS(=O)(=O)CC(=O)N[C@@H]1C(=O)N2C(C(=O)[O-])=C(CSc3nnnn3C)CS[C@H]12.[Na+]	1.6	0.4	1.6	0.4	inactive	0.8	6.2	> 13	Active	10
CC(=O)OCC1=C(C(=O)[O-])N2C(=O)[C@@H](NC(=O)C(C)S(C)(=O)=O)[C@H]2SC1.[Na+] (stereo partly drawn)	25	13	25	3.1	inactive	3.1	50	> 13	Active	
CC(C(=O)N[C@@H]1C(=O)N2C(C(=O)[O-])=C(CSc3nnnn3C)CS[C@H]12)S(C)(=O)=O.[Na+] (stereo partly drawn)	6.2	6.2	3.1	3.1	inactive	6.2	13	> 13	Active	50
CC(=O)OCC1=C(C(=O)[O-])N2C(=O)[C@@H](NC(=O)CS(=O)(=O)c3ccccc3)[C@H]2SC1.[Na+]	50	13	25	1.6	inactive	13	> 200	> 13	Active	
Cc1nnc(SCC2=C(C(=O)[O-])N3C(=O)[C@@H](NC(=O)CS(C)(=O)=O)[C@H]3SC2)[nH]1.[Na+]	6.2	1.6	13	1.6	inactive	3.1	200	> 13	Active	10
CC(=O)OCC1=C(C(=O)[O-])N2C(=O)[C@@H](NC(=O)CS(C)(=O)=O)[C@H]2SC1.[Na+]	13	13	13	3.1	inactive	13	> 200	> 13	Active	62
CS(=O)(=O)CC(=O)N[C@@H]1C(=O)N2C(C(=O)[O-])=C(CSc3cnn[nH]3)CS[C@H]12.[Na+]	13	6.2	13	1.6	inactive	6.2	> 200	> 13	Active	
Cn1cnnc1SCC1=C(C(=O)[O-])N2C(=O)[C@@H](NC(=O)CS(C)(=O)=O)[C@H]2SC1.[Na+]	6.2	3.1		3.1	inactive	6.2	> 200	> 13	Active	22
CC(=O)OCC1=C(C(=O)[O-])N2C(=O)[C@@H](NC(=O)CS(N)(=O)=O)[C@H]2SC1.[Na+]	50	13	25	1.6	inactive	25	200	> 13	Active	
